Measurements taken from publication PMC9944328 (Nature Communications, 2023).
Like-named read-outs stand apart in the source and are kept apart here.

Tested on: SSTR2 mutants
Test: SSTRs Gi-mediated cAMP inhibition, GloSensor, HEK293, 5 μM forskolin, 15 min room temperature (SSTR2 mutants)
Type: cell-based, human
Set-up: Best-fit Bottom, cAMP inhibition / Best-fit Top, cAMP inhibition / Span, cAMP inhibition / Bottom (best-fit value) / Top (best-fit value) / Span (best-fit value) / Span (best-fit) / Bottom (best-fit) / Top (best-fit) / Best-fit Bottom / Best-fit Top / Best-fit Span / Top / Span: scale not given here
Method: The levels of the intracellular 3′, 5′-cyclic AMP (cAMP) were measured by the GloSensor cAMP assay (Promega) as described in the previous studies[28],[41] which has been widely used. The human full-length SSTRs and mutants were cloned into the pcDNA3.1+ vector with a HA signal sequence followed by a Flag tag at the N-terminus. HEK293 cells (ATCC, CRL-1573) were seeded into 6-well microplates at a density of 1.0 × 10^6 cells/well and cultured for 24 h at 37 °C with 5% CO2. Cells were then co-transfected with SSTR wild-type or mutants and GloSensor plasmids. After 24 h of transfection, the cells were dissociated with TrypLE™ Express Enzyme (1X) (Thermo Fisher Scientific) and collected by centrifugation at 500 × g for 5 min. Then the collected cells were suspended in Hank’s balanced salt solution [HBSS (Thermo Fisher Scientific)] supplemented with […] (YEASEN), and then the suspension cells were seeded into 96-well plates with 90 μl/well. After incubating at room temperature for 40 min, 5 μM forskolin and ligands diluted in HBSS were added to each well and the plates were incubated at room temperature for 15 min. […] were measured using the Synergy H1 microplate reader (BioTek) and the data presented are means of at least three independent experiments.

## C[C@@H](O)[C@@H]1NC(=O)[C@H](CCCCN)NC(=O)[C@@H](Cc2c[nH]c3ccccc23)NC(=O)[C@H](Cc2ccccc2)NC(=O)[C@@H](NC(=O)[C@H](N)Cc2ccccc2)CSSC[C@@H](C(=O)N[C@H](CO)[C@@H](C)O)NC1=O [octreotide]
D295A-1
  Best-fit Bottom: -10.23
  Best-fit Span: 99.42
  Best-fit Top: 89.19
  LogEC50: -8.381
D295A-1, read-out: EC50
  EC50: 4.16 nM
D295A-2
  Best-fit Bottom: 1.886
  Best-fit Span: 96.17
  Best-fit Top: 98.06
  LogEC50: -8.514
D295A-2, read-out: EC50
  EC50: 3.06 nM
D295A-3
  Best-fit Span: 116.5
  Best-fit Top: 121.2
  LogEC50: -8.224
D295A-3, read-out: EC50
  EC50: 5.97 nM
F208A-1
  Span (best-fit): 78.86
F208A-2
  Span (best-fit): 58.27
F265A-1
  Bottom (best-fit): 0.9849
  LogEC50 (best-fit): -7.854
  Span (best-fit): 101.1
  Top (best-fit): 102.1
F265A-1, read-out: EC50 (best-fit)
  EC50: 14 nM
F265A-2
  Bottom (best-fit): 21.57
  LogEC50 (best-fit): -8.682
  Span (best-fit): 69.47
  Top (best-fit): 91.04
F265A-2, read-out: EC50 (best-fit)
  EC50: 2.08 nM
F265A-3
  Bottom (best-fit): 0.9849
  LogEC50 (best-fit): -7.854
  Span (best-fit): 101.1
  Top (best-fit): 102.1
F272A-1
  Bottom (best-fit): 2.117
  LogEC50 (best-fit): -8.522
  Span (best-fit): 53.6
  Top (best-fit): 55.72
F272A-1, read-out: EC50 (best-fit)
  EC50: 3 nM
F272A-2
  Bottom (best-fit): 11.48
  LogEC50 (best-fit): -6.317
  Span (best-fit): 89.48
  Top (best-fit): 101
F272A-2, read-out: EC50 (best-fit)
  EC50: 482 nM
F272A-3
  Bottom (best-fit): 14.59
  LogEC50 (best-fit): -6.317
  Span (best-fit): 113.7
  Top (best-fit): 128.3
F294A-1
  Best-fit Bottom: 3.53
  Best-fit Span: 87.88
  Best-fit Top: 91.41
  LogEC50: -6.677
F294A-1, read-out: EC50
  EC50: 211 nM
F294A-2
  Best-fit Bottom: 6.308
  Best-fit Span: 82.91
  Best-fit Top: 89.22
  LogEC50: -6.828
F294A-2, read-out: EC50
  EC50: 149 nM
F294A-3
  Best-fit Bottom: 4.16
  Best-fit Span: 103.6
  Best-fit Top: 107.7
  LogEC50: -6.677
Gi signaling, I130A, earlier manuscript version quoted by reviewer, superseded
  Emax: 91%
Gi signaling, Q102A, earlier manuscript version quoted by reviewer, superseded
  Emax: 109%
Gi signaling, SSTR2 D122(3.32)A, detected at 10 μM, n=3
  Emax: 12.04±1.83 %WT
Gi signaling, SSTR2 D295(7.36)A, n=3
  Emax: 102.80±9.54 %WT
Gi signaling, SSTR2 D295(7.36)A, n=3, read-out: EC50
  EC50: 4.4 ± 8.48 nM
Gi signaling, SSTR2 F127(3.37)A, n=3
  Emax: 108.70±0.91 %WT
Gi signaling, SSTR2 F127(3.37)A, n=3, read-out: EC50
  EC50: 1.93 nM
Gi signaling, SSTR2 F208(5.38)A, n=3
  Emax: 96.46±2.20 %WT
Gi signaling, SSTR2 F208(5.38)A, n=3, read-out: EC50
  EC50: 6.42 ± 2.37 nM
Gi signaling, SSTR2 F265(6.44)A, n=3
  Emax: 99.81±4.55 %WT
Gi signaling, SSTR2 F265(6.44)A, n=3, read-out: EC50
  EC50: 12.3 ± 5.46 nM
Gi signaling, SSTR2 F272A, n=3
  Emax: 95.01±21.17 %WT
Gi signaling, SSTR2 F272A, n=3, read-out: EC50
  EC50: 322.3 ± 1.6 nM
Gi signaling, SSTR2 F294(7.35)A, n=3
  Emax: 96.11±5.83 %WT
Gi signaling, SSTR2 F294(7.35)A, n=3, read-out: EC50
  EC50: 190 ± 2.07 nM
Gi signaling, SSTR2 I130(3.40)A, n=3
  Emax: 101.10±5.08 %WT
Gi signaling, SSTR2 I130(3.40)A, n=3, read-out: EC50
  EC50: 11.6 ± 4.99 nM
Gi signaling, SSTR2 I195(45.52)A, n=3
  Emax: 100.40±3.58 %WT
Gi signaling, SSTR2 I195(45.52)A, n=3, read-out: EC50
  EC50: 6.58 ± 1.1 nM
Gi signaling, SSTR2 I284ECL3A, n=3
  Emax: 97.53±14.28 %WT
Gi signaling, SSTR2 I284ECL3A, n=3, read-out: EC50
  EC50: 1.91 ± 4.66 nM
Gi signaling, SSTR2 K291(7.32)A, n=3
  Emax: 89.41±10.26 %WT
Gi signaling, SSTR2 K291(7.32)A, n=3, read-out: EC50
  EC50: 5.46 ± 1.06 nM
Gi signaling, SSTR2 L99(2.60)A, n=3
  Emax: 92.36±6.12 %WT
Gi signaling, SSTR2 L99(2.60)A, n=3, read-out: EC50
  EC50: 1.25 nM
Gi signaling, SSTR2 L290(7.31)A, n=3
  Emax: 103.50±7.16 %WT
Gi signaling, SSTR2 N276(6.55)A, n=3
  Emax: 107.20±5.70 %WT
Gi signaling, SSTR2 N276(6.55)A, n=3, read-out: EC50
  EC50: 35.1 ± 8.45 nM
Gi signaling, SSTR2 P220(5.50)A, n=3
  Emax: 95.86±14.17 %WT
Gi signaling, SSTR2 P220(5.50)A, n=3, read-out: EC50
  EC50: 3.37 ± 1.32 nM
Gi signaling, SSTR2 P286ECL3A, n=3
  Emax: 102.40±5.34 %WT
Gi signaling, SSTR2 P286ECL3A, n=3, read-out: EC50
  EC50: 0.62 ± 1.18 nM
Gi signaling, SSTR2 Q102(2.63)A, n=3
  Emax: 71.48±1.31 %WT
Gi signaling, SSTR2 Q102(2.63)A, n=3, read-out: EC50
  EC50: 66.8 ± 2.72 nM
Gi signaling, SSTR2 Q126(3.36)A, detected at 10 μM, n=3
  Emax: 21.88±1.91 %WT
Gi signaling, SSTR2 S279(6.58)A, n=3
  Emax: 101.70±5.61 %WT
Gi signaling, SSTR2 S279(6.58)A, n=3, read-out: EC50
  EC50: 1.17 ± 1.01 nM
Gi signaling, SSTR2 S285ECL3A, n=3
  Emax: 87.52±6.00 %WT
Gi signaling, SSTR2 S285ECL3A, n=3, read-out: EC50
  EC50: 0.69 ± 1.18 nM
Gi signaling, SSTR2 T194(45.51)A, n=3
  Emax: 91.51±3.38 %WT
Gi signaling, SSTR2 T194(45.51)A, n=3, read-out: EC50
  EC50: 48.5 ± 2.29 nM
Gi signaling, SSTR2 T287ECL3A, n=3
  Emax: 98.50±5.26 %WT
Gi signaling, SSTR2 T287ECL3A, n=3, read-out: EC50
  EC50: 0.6 nM
Gi signaling, SSTR2 V103(2.64)A, n=3
  Emax: 90.80±3.48 %WT
Gi signaling, SSTR2 V103(2.64)A, n=3, read-out: EC50
  EC50: 7.66 ± 2.51 nM
Gi signaling, SSTR2 W188ECL3A, n=3
  Emax: 102.40±5.12 %WT
Gi signaling, SSTR2 W188ECL3A, n=3, read-out: EC50
  EC50: 0.32 nM
Gi signaling, SSTR2 W269(6.48)A, n=3
  Emax: 99.58±2.56 %WT
Gi signaling, SSTR2 W269(6.48)A, n=3, read-out: EC50
  EC50: 0.89 ± 2.24 nM
Gi signaling, SSTR2 Y50(1.39)A, n=3
  Emax: 104.70±0.48 %WT
Gi signaling, SSTR2 Y50(1.39)A, n=3, read-out: EC50
  EC50: 0.46 nM
Gi signaling, SSTR2 Y205(5.35)A, n=3
  Emax: 112.90±25.77 %WT
Gi signaling, SSTR2 Y205(5.35)A, n=3, read-out: EC50
  EC50: 0.92 nM
Gi signaling, SSTR2 Y302(7.43)A, n=3
  Emax: 79.09±10.74 %WT
Gi signaling, SSTR2 Y302(7.43)A, n=3, read-out: EC50
  EC50: 79 ± 2.7 nM
I284A-1, run 1
  Bottom (best-fit value): 8.872
  LogEC50 (best-fit value): -8.868
  Span (best-fit value): 107.4
